According to patent US7601333B2, “Use of a tetrapeptide AcSDKP (SEQ ID No. 1) analog resistant to the angiotensin I converting enzyme for measuring glomerular filtration rate in a human or an animal and kit containing same” (Assistance Publique-Hopitaux de Paris, priority 2003, dated 2009):
Values joined by “and” are separate entries in the source; they are usually repeats but may differ in a detail not shown here. Equal values may be shown once. Residues, ends and D or L forms follow the SMILES beside them.

Tests used:
[1] = cited from earlier work
plasma proteins = conditions: cited from earlier work
in vivo = conditions: male, Wistar, rat, iv
N-terminal site of ACE = N-terminal site of ACE (Homo sapiens, UniProt P12821); conditions: AcSDKP as substrate, in vitro; cited from earlier work
[2] = Plasma and urine pharmacokinetics after I.V. bolus in rats; conditions: for % excreted - endog / CLR -endog: endogenous AcSDKP subtracted; for % excreted: urine
[3] = Group 1, i.v. bolus, without captopril, mean
[4] = Group 1, i.v. bolus, without captopril, single rats
[5] = Group 2, i.v. bolus, with captopril, 2-4 h, single rats
[6] = Group 2, i.v. bolus, with captopril, mean
[7] = Group 2, i.v. bolus, with captopril, single rats
[8] = summarizing table, rats, i.v. bolus, with captopril
[9] = summarizing table, rats, i.v. bolus, without captopril

Sequence of N-terminal site of ACE (P12821 40-624 limits assumed): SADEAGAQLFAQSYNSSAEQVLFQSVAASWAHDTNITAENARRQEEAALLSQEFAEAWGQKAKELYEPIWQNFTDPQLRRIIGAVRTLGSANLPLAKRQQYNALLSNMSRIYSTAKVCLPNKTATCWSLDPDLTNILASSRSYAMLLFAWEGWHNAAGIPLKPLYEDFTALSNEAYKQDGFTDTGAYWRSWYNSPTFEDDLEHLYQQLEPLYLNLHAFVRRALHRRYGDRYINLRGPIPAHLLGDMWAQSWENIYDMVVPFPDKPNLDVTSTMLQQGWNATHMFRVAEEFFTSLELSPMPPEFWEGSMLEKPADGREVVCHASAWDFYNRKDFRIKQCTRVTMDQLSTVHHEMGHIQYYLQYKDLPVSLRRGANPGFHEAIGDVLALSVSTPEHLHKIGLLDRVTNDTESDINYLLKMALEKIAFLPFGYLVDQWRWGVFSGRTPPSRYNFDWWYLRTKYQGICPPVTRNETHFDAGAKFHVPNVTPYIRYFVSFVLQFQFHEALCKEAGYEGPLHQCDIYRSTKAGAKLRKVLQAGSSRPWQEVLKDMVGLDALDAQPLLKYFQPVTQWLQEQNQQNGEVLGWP

Which results are given for `CC(=O)N[C@@H](CO)C(=O)N[C@@H](CC(=O)O)C(=O)N[C@@H](CCCCN)C(=O)N1CCC[C@H]1C(=O)O` [AcSDKP, N-acetyl-Ser-Asp-Lys-Pro] (Ac-SDKP-OH; C-terminus assumed)?
concentration in the plasma, minimum value ([1]; between two 50 mg doses of captopril): 2 nM; urinary clearance relative to endogenous creatinine clearance ([1]; with an ACE inhibitor): 69±27%; bound to the plasma proteins (plasma proteins): < 1%; Vd (in vivo; plasma): 0.353 L/kg; level at time molar at 5 min (in vivo; plasma): 5660 nM; level at time molar at 10 min (in vivo; plasma): 4980 nM; level at time molar at 0.25 h (in vivo; plasma): 4040 nM; level at time molar at 1 h (in vivo; plasma): 1000 nM; level at time molar at 2 h (in vivo; plasma): 218 nM; level at time molar at 3 h (in vivo; plasma): 60 nM; level at time molar at 4 h (in vivo; plasma): 22 nM; level at time molar at 5 h (in vivo; plasma): 11 nM; level at time molar at 5 min (in vivo; plasma, 1.2 mg/kg): 1820 nM; level at time molar at 10 min (in vivo; plasma, 1.2 mg/kg): 514 nM; level at time molar at 0.25 h (in vivo; plasma, 1.2 mg/kg): 194 nM; level at time molar at 0.5 h (in vivo; plasma, 1.2 mg/kg): 38 nM; level at time molar at 1 h (in vivo; plasma, 1.2 mg/kg): 8.2 nM; level at time molar at 2 h (in vivo; plasma, 1.2 mg/kg): 2.2 nM; CL renal (in vivo; urine and plasma, 1 mg/kg): 11.2 mL/min/kg; dose excreted (in vivo; urine, 1.2 mg/kg): 10.1%; catalytic effectiveness of N-terminal site of ACE relative to C-terminal site (N-terminal site of ACE): 50 times; Q in urine ([2]; Group 1, i.v. bolus, without captopril, 0-2 h, single rats): 25.1 nmol and 0.0 nmol and 46.7 nmol and 0.1 nmol; Q in urine ([2]; Group 1, i.v. bolus, without captopril, 2-4 h, single rats): 7.1 nmol and 0.0 nmol and 15.7 nmol and 36.4 nmol; Q in urine ([2]; Group 1, i.v. bolus, without captopril, 4-5 h, single rats): 33.5 nmol and 51.3 nmol and 0.0 nmol and 14.6 nmol; Q in urine ([2]; Group 1, i.v. bolus, without captopril, 5-24 h, single rats): 9.9 nmol and 10.2 nmol and 0.0 nmol and 20.6 nmol and 78.5 nmol; Q in urine ([2]; Group 1, i.v. bolus, without captopril, 24-36 h, single rats): 4.1 nmol and 3.4 nmol and 15.5 nmol and 0.9 nmol; Q in urine ([2]; Group 1, i.v. bolus, without captopril, 36-48 h, single rats): 4.0 nmol and 1.7 nmol and 3.4 nmol and 2.0 nmol and 7.9 nmol; Concentration in plasma ([2]; Group 1, i.v. bolus, without captopril, 5 min, single rats): 2188 nM and 1759 nM and 1239 nM and 2100 nM and 1802 nM; Concentration in plasma ([2]; Group 1, i.v. bolus, without captopril, 10 min, single rats): 729 nM and 400 nM and 265 nM and 671 nM and 508 nM; Concentration in plasma ([2]; Group 1, i.v. bolus, without captopril, 15 min, single rats): 268 nM and 96 nM and 135 nM and 328 nM and 143 nM; Concentration in plasma ([2]; Group 1, i.v. bolus, without captopril, 30 min, single rats): 34 nM and 14 nM and 10 nM (2×) and 121 nM; Concentration in plasma ([2]; Group 1, i.v. bolus, without captopril, 60 min, single rats): 5 nM and 0.36 nM and 0.15 nM and 33 nM and 2 nM; Concentration in plasma ([2]; Group 1, i.v. bolus, without captopril, 120 min, single rats): ILQ (4×) and 2 nM; Concentration in plasma ([2]; Group 1, i.v. bolus, without captopril, 180 min, single rats): ILQ; Concentration in plasma ([2]; Group 1, i.v. bolus, without captopril, 240 min, single rats): ILQ; Concentration in plasma ([2]; Group 1, i.v. bolus, without captopril, 300 min, single rats): ILQ; % excreted - endog [2, 3]: 7.86%; CLR -endog [2, 3]: 11.21 mL/min/kg; % excreted - endog [2, 4]: 8.9% and 8.0% and 5.6% and 8.3% and 8.5%; CLR -endog [2, 4]: 8.6 mL/min/kg and 11.1 mL/min/kg and 11.5 mL/min/kg and 11.8 mL/min/kg and 13.0 mL/min/kg; AUC0-inf [2, 3]: 17393 nM·min; CLR [2, 3]: 14.52 mL/min/kg; VD [2, 3]: 1.389 L/kg; t½ [2, 3]: 6.8 min; AUC0-inf [2, 4]: 230401 nM·min and 16319 nM·min and 13026 nM·min and 18178 nM·min and 16223 nM·min; CLR [2, 4]: 10.7 mL/min/kg and 12.5 mL/min/kg and 20.3 mL/min/kg and 12.8 mL/min/kg and 16.4 mL/min/kg; Q in urine total [2, 4]: 83.7 nmol and 66.6 nmol and 81.3 nmol and 74.5 nmol and 86.5 nmol; VD [2, 4]: 0.894 L/kg and 1.07 L/kg and 1.034 L/kg and 2.6 L/kg and 1.346 L/kg; t½ [2, 4]: 6.4 min and 4.7 min and 4.4 min and 12.8 min and 5.9 min; % excreted [2, 4]: 1.1% and 9.4% and 10.5% and 8.9% and 10.4%; Q in urine ([2]; Group 2, i.v. bolus, with captopril, 0-2 h, single rats): 0.0 nmol; Concentration in urine [2, 5]: 126118 nM; Q in urine [2, 5]: 0.2 nmol and 744.4 nmol and 820.9 nmol and 0.0 nmol and 535.3 nmol; Q in urine ([2]; Group 2, i.v. bolus, with captopril, 4-6 h, single rats): 0.0 nmol; Q in urine ([2]; Group 2, i.v. bolus, with captopril, 6-24 h, single rats): 504.6 nmol and 49.0 nmol and 219.7 nmol and 649.1 nmol and 202.3 nmol; Q in urine ([2]; Group 2, i.v. bolus, with captopril, 24-30 h, single rats): 1.6 nmol and 9.6 nmol and 0.0 nmol (3×); Q in urine ([2]; Group 2, i.v. bolus, with captopril, 30-48 h, single rats): 8.0 nmol and 2.5 nmol and 10.6 nmol (2×) and 0.4 nmol; Concentration in plasma ([2]; Group 2, i.v. bolus, with captopril, 5 min, single rats): 6707 nM and 5413 nM and 5511 nM and 5293 nM and 5393 nM; Concentration in plasma ([2]; Group 2, i.v. bolus, with captopril, 10 min, single rats): 5920 nM and 4813 nM and 4288 nM and 5439 nM and 4445 nM; Concentration in plasma ([2]; Group 2, i.v. bolus, with captopril, 15 min, single rats): 5571 nM and 4016 nM and 3399 nM and 3876 nM and 3343 nM; Concentration in plasma ([2]; Group 2, i.v. bolus, with captopril, 30 min, mean): 2457 nM; Concentration in plasma ([2]; Group 2, i.v. bolus, with captopril, 30 min, single rats): 2173 nM; Concentration in plasma ([2]; Group 2, i.v. bolus, with captopril, 60 min, single rats): 1759 nM and 735 nM and 848 nM and 1069 nM and 590 nM; Concentration in plasma ([2]; Group 2, i.v. bolus, with captopril, 120 min, single rats): 501 nM and 151 nM and 145 nM and 197 nM and 97 nM; Concentration in plasma ([2]; Group 2, i.v. bolus, with captopril, 180 min, single rats): 159 nM and 32 nM and 39 nM and 48 nM and 21 nM; Concentration in plasma ([2]; Group 2, i.v. bolus, with captopril, 240 min, single rats): 52 nM and 10 nM and 18 nM and 23 nM and 7 nM; Concentration in plasma ([2]; Group 2, i.v. bolus, with captopril, 300 min, single rats): 26 nM and 9 nM and 6 nM and 11 nM and 4 nM; % excreted - endog [2, 6]: 97%; CLR -endog [2, 6]: 11.67 mL/min/kg; % excreted - endog [2, 7]: 75.3% and 85.1% and 139.3% and 90.2% and 95.1%; CLR -endog [2, 7]: 5.2 mL/min/kg and 13.2 mL/min/kg and 16.4 mL/min/kg and 10.1 mL/min/kg and 13.5 mL/min/kg; AUC0-INF [2, 6]: 224742 nM·min; CLR [2, 6]: 11.94 mL/min/kg; Vd [2, 6]: 0.515 L/kg; t½ [2, 6]: 30.7 min; AUC0-INF [2, 7]: 341133 nM·min and 196456 nM·min and 200683 nM·min and 217932 nM·min and 167504 nM·min; CLR [2, 7]: 5.39 mL/min/kg and 13.59 mL/min/kg and 16.71 mL/min/kg and 10.09 mL/min/kg and 13.91 mL/min/kg; Q in urine total [2, 7]: 514.5 nmol and 805.5 nmol and 1051.2 nmol and 649.5 nmol and 748.3 nmol; Vd [2, 7]: 0.653 L/kg and 0.499 L/kg and 0.505 L/kg and 0.567 L/kg; t½ [2, 7]: 35.5 min and 29.2 min and 29.5 min and 31.4 min and 28.1 min; % excreted [2, 7]: 78.2% and 87.7% and 142.2% and 90.4% and 97.9%; degradation in vivo ([2]; rats, in the absence of captopril): rapidly degraded in vivo; Renal clearance [2, 8]: 11.7 mL/min/kg; T ½ life [2, 8]: 30.7 min; Total clearance [2, 8]: 11.9 mL/min/kg; T ½ life [2, 9]: 6.8 min; Total clearance [2, 9]: 144.4 mL/min/kg
